Measurements published in paper PMC12249957, “Molecular Hybrids of Thiazolidinone: Bridging Redox Modulation and Cancer Therapy” (International Journal of Molecular Sciences, 2025).
pIC50: −log10 of the molar value.

Columns and labels:
[1] = DPPH radical-scavenging assay (antioxidant activity); format: biochemical
Protocol: In this study, the antioxidant activity of the newly synthesized thiazolidinone derivative 5 was evaluated, and its IC50 value was compared with those of the parent compound, thiazolidinone 1; previously reported derivatives 6 and 7; and the reference antioxidant, ascorbic acid. To ensure a valid comparison, all compounds were assessed under identical conditions using the DPPH (2,2-diphenyl-1-picrylhydrazyl) radical-scavenging assay.
The antioxidant activity of thiazolidinone derivative 5 was evaluated under conditions similar to those reported in our previous work for thiazolidinone derivatives (1, 6, and 7) using the DPPH assay (2,2-diphenyl-1-picrylhydrazyl). The concentration needed to get rid of 50% of free radicals is called IC50 (half-maximal inhibitory concentration) (μg/mL). The value of the IC50 is determined by plotting antioxidant activity against the concentration employing the equation below:%Antioxidant activity = (Acontrol − Asample/Acontrol) × 100 where Acontrol is the absorbance of the DPPH solution without the sample, and Asample is the absorbance with the tested compound. These percentage inhibition values are then plotted against the logarithm of the compound concentrations to generate a dose–response curve. […]

[2] = molecular target: insulin-like growth factor-1 receptor (IGF-1R); design: method as in PMID 20178321; details: read-out: IC50, IGF-1R inhibition; cited from earlier work
[3] = MTS cell viability assay, HepG2; format: cell-based; details: human, HepG2 cells; for viability: concentrations of ≥1250 µg/mL, time not stated
Protocol: (§1) The MTS assay was employed in the current study to evaluate the in vitro effects of thiazolidinone derivatives (TZDs-1, 5, 6, and 7) on the cellular viability of the HFF-1, HepG2, and A549 cell lines following incubation for 24 and 48 h. Using the MTS assay allows for the quantitative measurement of how TZDs affect cell viability after a certain period of treatment. The 24- and 48-hour incubation periods are useful for observing either immediate and delayed cytotoxicity or effects on cell growth, providing more comprehensive data on the potential therapeutic or toxic properties of thiazolidinone derivatives.
(§2) All solvents used in the preparation of thiazolidinone derivatives were obtained in pure form from Sigma-Aldrich (St. Louis, MO, USA) and Thermo Fisher Scientific (Waltham, MA, USA). All other chemicals used herein were of analytical grade and were used without further purification. To separate and confirm the purity of thiazolidinone derivatives, column chromatography on silica gel (0.063–0.2 mm) and thin layer chromatography (TLC) with aluminum silica gel F254 were used. Human foreskin fibroblasts (HFF-1) (ATCC: SCRC-1041), hepatoblastoma cell line (HepG2) (ATCC: HB-8065), and human lung cancer cell line (A549) (ATCC: CCL-185) were used in this study to evaluate the cytotoxicity of the tested compounds. Distilled water for experiment preparation was generated using a Milli-Q® IQ 7005 Purification System (Millipore SAS, Molsheim, France).
(§3) HFF-1, HepG2, and A549 were cultured in DMEM (Sigma-Aldrich, St. Louis, MO, USA) medium complemented with 10% fetal bovine serum (FBS) (Sigma, Suffolk, UK), streptomycin ([…]), and penicillin (100 units/mL) (Sigma, Suffolk, UK) in a cell culture incubator (5% CO2 at 37 °C).
(§4) Thiazolidinone derivatives (TZDs-1, 5, 6, and 7) were prepared via dissolution in 10% DMSO and 8 serial dilutions and assessed starting from 5000 to 39 µg/mL. A CellTiter 96® AQueous One Solution Cell Proliferation Assay (MTS kit, Promega, Madison, WI, USA) was used to evaluate the cell viability of TZDs on the cells. Briefly, all cells were seeded into 96-well plates with a seeding density of 1.5 × 10^4 cells per well. After 24 h, cells adhered, and then, TZD derivatives were added, and plates were incubated in a cell culture incubator with 5% CO2 at 37 °C for 24 and 48 h. Completed DMEM was used as the positive control, and 0.1% Triton X-100 was used as the negative control. After incubation time, cells were washed with sterile phosphate-buffered saline, pH 7.4 (PBS), and then, a mixture of complete DMEM medium and MTS reagent was added to each well (100 µL of DMEM medium + 20 µL of MTS reagent). Finally, the plates were incubated for 3 h in a cell culture incubator. The absorbance at 492 nm was recorded using a Cytation ™ 3 Cell Imaging Multi-Mode Reader (BIOTEK Instruments Inc., Winooski, VT, USA). The percentage of cellular viability was calculated using the following equation:Cell Viability (%) = (S − T)/(H − T) × 100 where S is the absorbance of the cells treated with the applied compounds, T is the absorbance of the positive control, and H is the absorbance of the negative control. The results are presented as the mean ± SD of at least three independent measurements.

[4] = tested on: normal (HFF-1) and cancerous cells (HepG2 and A549); assay: Summary of selectivity toward cancer cells (MTS viability, normal vs cancerous cells); format: cell-based, human
Protocol: as §1, §3, §4

[5] = MTS cell viability assay, HFF-1; format: cell-based, human; details: human, HFF-1 cells (foreskin fibroblasts)
Protocol: as §1, §2, §3, §4

[6] = MTS cell viability assay, A549; format: cell-based; details: human, A549 cells
Protocol: as §1, §2, §3, §4

[7] = tested on: HFF-1 cells; assay: MTS cell viability assay, HFF-1; format: cell-based, human; details: 48 h, 1250 µg/mL
Protocol: as §1, §2, §3, §4

[8] = design: method as in doi:10.1016/j.molstruc.2024.139348; details: DPPH; unit inferred; cited from earlier work

Compound	viability at 24 h, 1250 µg/mL ([3]; 24 h)	viability at 48 h, 1250 µg/mL [3]	Selectivity Toward Cancer Cells ([4]; 24 h, 1250 µg/mL)	Selectivity Toward Cancer Cells ([4]; 48 h, 1250 µg/mL)	viability at 24 h, 1250 µg/mL ([5]; 24 h)	viability at 48 h, 1250 µg/mL [5]	IC50 of antioxidant activity (Figure 3) [8]	viability at 24 h, 1250 µg/mL ([6]; 24 h)	viability at 48 h, 1250 µg/mL [6]	further results
O=C1O[C@H]([C@@H](O)CO)C(O)=C1O [ascorbic acid, reference compound]	–	–	–	–	–	–	–	–	–	IC50 of antioxidant activity (DPPH) [1]: 11.76 µg/mL
O=C1NC(=O)C(=Cc2ccco2)S1 [5-(furan-2-ylmethylene)thiazolidine-2,4-dione]	–	–	–	–	–	–	–	–	–	pIC50 [2]: 7.21
COc1ccc(CN2C(=O)CSC2=NN=Cc2cc(OC)c(OC)c(OC)c2)cc1 [TZD-5, 3-(4-methoxybenzyl)-2-((3,4,5-trimethoxybenzylidene)hydrazineylidene) thiazolidin-4-one]	–	–	–	–	–	–	–	–	–	viability at 24 h, 2500 µg/mL ([3]; 24 h, 2500 µg/mL): 63%; viability at 48 h, 2500 µg/mL ([3]; 2500 µg/mL): 57%; Selectivity Toward Cancer Cells ([4]; 24 h, 2500 µg/mL): Moderate (better selectivity); Selectivity Toward Cancer Cells ([4]; 48 h, 2500 µg/mL): Moderate; viability at 24 h, 2500 µg/mL ([5]; 24 h, 2500 µg/mL): 97%; viability at 48 h, 2500 µg/mL ([5]; 2500 µg/mL): 48%; IC50 of antioxidant activity (DPPH) [1]: 24.4 µg/mL; viability at 24 h, 2500 µg/mL ([6]; 24 h, 2500 µg/mL): 95.8%; viability at 48 h, 2500 µg/mL ([6]; 2500 µg/mL): 55%
COc1cc(/C=N/N=C2\SCC(=O)N2Cc2ccccc2)cc(OC)c1OC [TZD-6]	25%	12%	Low (high toxicity to normal cells)	Low	2%	1 to 2%	111 µg/mL	13%	9%	viability at 24 h, 156 µg/mL ([3]; 24 h, 156 µg/mL): 76%; viability at 24 h, 5000 µg/mL ([3]; 24 h, 5000 µg/mL): 35%; viability at 48 h, 2500 µg/mL ([3]; 2500 µg/mL): 7%; viability [3]: < 25%; HFF-1 Viability (%) [7]: 1–2%; viability at 24 h, 312 µg/mL ([5]; 24 h, 312 µg/mL): 70%; viability at 48 h, 2500 µg/mL ([5]; 2500 µg/mL): 1 to 2%; viability at 24 h, 156 µg/mL ([6]; 24 h, 156 µg/mL): 78%; viability at 24 h, 5000 µg/mL ([6]; 24 h, 5000 µg/mL): 10%; viability at 48 h, 2500 µg/mL ([6]; 2500 µg/mL): 13%; viability ([6]; concentrations of ≥1250 µg/mL, time not stated): < 25%
COc1cc(C=NNC2=NC(=O)CS2)cc(OC)c1OC [TZD-1, 2-(2-(3,4,5-trimethoxybenzylidene) hydrazineyl)thiazol-4(5H)-one]	53.2%	21.9%	Low (high toxicity to normal cells)	Low	6.45%	15.3%	263 µg/mL	75.6%	70.6%	viability [3]: < 25%
O=C1NC(=O)C(=Cc2ccccc2)S1 [5-benzylidenethiazolidine-2,4-dione]	–	–	–	–	–	–	–	–	–	pIC50 [2]: 7.24
COc1cc(/C=N/N=C2\SCC(=O)N2Cc2ccc([N+](=O)[O-])cc2)cc(OC)c1OC [TZD-7]	96.4%	~23%	Moderate (better selectivity)	High	110%	> 94%	200 µg/mL	70%	82.3%	viability at 24 h, 39 µg/mL ([5]; 24 h, 39 µg/mL): 135%
